These results are taken from publication PMC6009894, “Molecular modelling insights into a physiologically favourable approach to eicosanoid biosynthesis inhibition through novel thieno[2,3-b]pyridine derivatives” (Journal of Enzyme Inhibition and Medicinal Chemistry, 2018).

The target in one data set is T1, COX-2 (human) (Homo sapiens, UniProt P35354).
T1 construct: purchased Cayman (Ann Arbor, MI) 701080
T1 sequence (P35354 18-604): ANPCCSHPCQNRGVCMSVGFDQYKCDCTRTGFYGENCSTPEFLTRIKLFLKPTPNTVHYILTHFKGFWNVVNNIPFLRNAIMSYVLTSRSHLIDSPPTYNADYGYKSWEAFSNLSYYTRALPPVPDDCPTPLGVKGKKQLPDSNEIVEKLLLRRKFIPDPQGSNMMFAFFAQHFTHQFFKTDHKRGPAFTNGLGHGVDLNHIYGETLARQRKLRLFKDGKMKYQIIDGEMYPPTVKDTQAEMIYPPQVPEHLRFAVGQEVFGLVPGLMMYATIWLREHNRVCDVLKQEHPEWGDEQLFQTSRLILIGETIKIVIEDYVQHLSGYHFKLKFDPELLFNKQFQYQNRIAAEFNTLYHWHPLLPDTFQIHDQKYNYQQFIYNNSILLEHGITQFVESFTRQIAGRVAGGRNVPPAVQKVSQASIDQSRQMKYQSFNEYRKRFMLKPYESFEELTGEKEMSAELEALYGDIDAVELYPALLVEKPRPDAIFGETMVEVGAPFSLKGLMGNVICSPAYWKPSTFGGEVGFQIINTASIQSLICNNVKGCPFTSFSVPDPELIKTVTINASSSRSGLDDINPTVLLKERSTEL
The data set can be described thus: COX-2 (human) Inhibitor Screening Assay Kit (Cayman). In kind it is biochemical. The following applies: for selectivity index COX-2/COX-1: towards COX-2 than COX-1. An excerpt: (§1) The used protocol was according to the manufacturer protocol guide and instructions using ELISA plate reader.

For data set [1], the system named is carrageenan-induced rat paw oedema. The data set can be described thus: carrageenan-induced rat paw oedema assay. The data set is classed as in vivo, Sprague–Dawley rats. The following applies: for Inhibition of acute inflammation % inh / Swel (mean difference in rat paw volume between right and left paw): dose equivalent to 70 mg kg-1 ibuprofen; for Swel (mean difference in rat paw volume between right and left paw): DMSO; for inflammation reduction % (4h): rat paw oedema, 4 h time interval, subcutaneous, equimolar to ibuprofen 70 mg kg-1. The procedure:
According to a priori test results, experiments were conducted on young adult male Sprague–Dawley rats (5 rats per group), weighing 140–170 g. The animals were housed at cages in a temperature controlled (25 ± 1 °C) environment and were fed ad libitum with standard laboratory chow and allowed free access to water. […] The animal protocol is in accordance with the Animal Ethical Care regulations in the Faculty of Pharmacy, Helwan University.
Compounds (equimolar to the reference drug) were dissolved in DMSO and administrated subcutaneously. One hour later, paw oedema was induced by subplantar injection of 0.1 ml of 1% carrageenan (Sigma-Aldrich, St. Louis, MO) into the right hind paw. Paw volume was measured using a water plethysmometer (Basile, Comerio, Italy). The difference between the right and left paw volume was measured at 1, 2, 3, and 4 h after induction of inflammation.
The control group (five rats per group) received DMSO subcutaneously and carrageenan in the subplantar region. Results were expressed as percentage inhibition of inflammation.
(In general: Carrageenan injected into the paw causes an acute inflammation.)

The target of a further data set is T2, COX-1 (human) (Homo sapiens, UniProt P23219).
T2 construct: purchased Cayman (Ann Arbor, MI) 701070
T2 sequence (P23219 24-599): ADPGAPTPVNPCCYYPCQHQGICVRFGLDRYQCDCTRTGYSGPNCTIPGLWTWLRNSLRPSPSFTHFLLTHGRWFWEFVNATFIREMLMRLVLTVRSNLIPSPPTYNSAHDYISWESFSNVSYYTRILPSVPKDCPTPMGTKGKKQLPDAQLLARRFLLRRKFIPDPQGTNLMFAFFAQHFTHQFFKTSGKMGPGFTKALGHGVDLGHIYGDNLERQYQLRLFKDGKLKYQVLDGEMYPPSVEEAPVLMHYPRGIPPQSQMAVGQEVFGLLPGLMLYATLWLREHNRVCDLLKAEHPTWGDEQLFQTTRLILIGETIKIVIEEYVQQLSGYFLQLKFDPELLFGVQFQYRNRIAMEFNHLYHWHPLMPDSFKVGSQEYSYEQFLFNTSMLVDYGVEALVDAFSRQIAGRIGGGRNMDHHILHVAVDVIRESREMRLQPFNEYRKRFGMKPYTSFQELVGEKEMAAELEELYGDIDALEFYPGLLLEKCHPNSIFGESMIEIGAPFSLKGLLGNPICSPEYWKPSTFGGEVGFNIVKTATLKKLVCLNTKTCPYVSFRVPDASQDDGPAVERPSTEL
The data set can be described thus: COX-1 (human) Inhibitor Screening Assay Kit (Cayman). The data set is classed as biochemical.
From the text: as §1

Another data set addresses T3, 5-LOX (Homo sapiens, UniProt P09917).
T3 sequence (P09917 1-674): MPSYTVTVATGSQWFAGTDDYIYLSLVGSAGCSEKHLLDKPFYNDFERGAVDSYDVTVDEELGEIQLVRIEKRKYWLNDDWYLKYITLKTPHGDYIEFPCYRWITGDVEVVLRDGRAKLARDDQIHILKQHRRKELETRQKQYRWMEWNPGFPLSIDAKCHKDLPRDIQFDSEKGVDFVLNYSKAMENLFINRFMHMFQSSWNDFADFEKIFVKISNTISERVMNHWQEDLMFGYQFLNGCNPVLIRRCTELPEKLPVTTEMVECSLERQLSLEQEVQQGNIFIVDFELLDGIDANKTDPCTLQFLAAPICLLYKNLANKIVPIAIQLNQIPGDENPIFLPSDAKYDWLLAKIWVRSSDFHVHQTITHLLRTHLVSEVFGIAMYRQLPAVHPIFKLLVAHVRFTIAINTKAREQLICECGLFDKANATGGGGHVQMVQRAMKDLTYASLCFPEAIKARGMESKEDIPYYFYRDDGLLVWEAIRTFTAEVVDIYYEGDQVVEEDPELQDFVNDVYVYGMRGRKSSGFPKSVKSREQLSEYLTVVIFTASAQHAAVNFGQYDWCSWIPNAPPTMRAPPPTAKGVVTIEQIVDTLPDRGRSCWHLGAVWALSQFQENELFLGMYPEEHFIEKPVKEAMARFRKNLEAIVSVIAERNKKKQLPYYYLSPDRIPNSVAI
The data set can be described thus: 5-LOX Inhibitor Screening Assay Kit (Cayman). The data set is classed as biochemical. The following applies: for 5-LOX IC50 level: in words.
From the text: as §1

Several values for one entry are separate records, joined by “and”; a condition that tells them apart may be missing. Equal values may be shown once.

As for `Cc1cc(C)c2c(N)c(C(=O)NN=Cc3ccccc3)sc2n1` [Compound 7a, 3-Amino-4,6-dimethyl-thieno [2,3-b] pyridine-2-carboxylic acid benzylidene-hyrazide], the figures for the IC50 against COX-2 (human) and on COX-1 (human) were 9.99 µM and 45.9 µM, respectively. Moreover, the “COX-2 inhibition, times higher than 8a” value at COX-2 (human) (compared with 8a) is given as 3.6 times. Further, the “COX-2 inhibition, times higher than 8c” value on COX-2 (human) (compared with 8c) is 1.8 times. The “selectivity index COX-2/COX-1” value on COX-2 (human) is listed as 4.6. In addition, the “Inhibition of acute inflammation % inh” value in data set [1] (1 h) amounted to 37.68%; in data set [1] (2 h), 42.3%; in data set [1] (3 h), 71.2%; in data set [1] (4 h), 73.54%. In addition, the “Swel (mean difference in rat paw volume between right and left paw)” value is 0.143 in data set [1] (1 h after carrageenan), 0.15 in data set [1] (2 h after carrageenan), 0.156 in data set [1] (3 h after carrageenan) and 0.16 in data set [1] (4 h after carrageenan). The “inflammation reduction % (4h)” value in data set [1] was 73.5% and 73.54%. Further, on 5-LOX (compared with 8a), the “5-LOX inhibition, times higher than 8a” value worked out at 35 times. In addition, the “5-LOX inhibition, times higher than 8c” value on 5-LOX (compared with 8c) is listed as 87 times. The “5-LOX IC50 level” value on 5-LOX is “nanomolar level”.
As for `Cc1cc(C)c2c(N)c(C(=O)N/N=C/c3ccc(Cl)cc3)sc2n1` [Compound 7b, 3-Amino-4,6-dimethyl-thieno [2,3-b] pyridine-2-carboxylic acid (4-chloro-benzylidene)-hyrazide], the melting point (in general, the temperature of the solid-liquid transition) was in the range of 280 to 282 °C. For the same compound, on COX-2 (human), the IC50 – broadly, the concentration at which inhibition is half-maximal – is 7.5 µM and 7.52 µM; the “selectivity index COX-2/COX-1” value came to 4.2. Also, the “Inhibition of acute inflammation % inh” value in data set [1] (1 h) came to 22.1%. Also, in data set [1] (1 h after carrageenan), the “Swel (mean difference in rat paw volume between right and left paw)” value turned out to be 0.17. For the same compound, in data set [1] (2 h), the “Inhibition of acute inflammation % inh” value is reported as 35.62%. Besides, in data set [1] (2 h after carrageenan), the “Swel (mean difference in rat paw volume between right and left paw)” value worked out at 0.16. Moreover, the “Inhibition of acute inflammation % inh” value in data set [1] (3 h) was 54.75%. The “Swel (mean difference in rat paw volume between right and left paw)” value in data set [1] (3 h after carrageenan) is on record as 0.25. Besides, in data set [1] (4 h), the “Inhibition of acute inflammation % inh” value is given as 73.02%. Moreover, the “Swel (mean difference in rat paw volume between right and left paw)” value in data set [1] (4 h after carrageenan) is 0.17. Also, the “inflammation reduction % (4h)” value in data set [1] worked out at 73.02%. This compound also yielded an IC50 against COX-1 (human) of 31.8 µM. On 5-LOX, the “5-LOX IC50 level” value was “nanomolar level”.
For `Cc1cc(C)c2c(n1)sc1c(=O)n(/N=C/c3ccc(Cl)cc3)nnc12` [Compound 8b, 7,9-Dimethyl-3-[(4-chloro-phenyl-methylene)amino]pyrido[3ˈ,2ˈ:4,5] thieno [3,2-d][1,2,3]triazin-4(3H)-one], the melting point lay in the range of 255 to 257 °C. Besides, the IC50 against COX-2 (human) came out at 36 µM. Besides, the “Inhibition of acute inflammation % inh” value in data set [1] (1 h) amounted to 0%. In addition, the “Swel (mean difference in rat paw volume between right and left paw)” value in data set [1] (1 h after carrageenan) came out at 0.23. In addition, the “Inhibition of acute inflammation % inh” value in data set [1] (2 h) is given as 0%. Further, the “Swel (mean difference in rat paw volume between right and left paw)” value in data set [1] (2 h after carrageenan) turned out to be 0.27. Moreover, the “Inhibition of acute inflammation % inh” value in data set [1] (3 h) is 56.54%. The “Swel (mean difference in rat paw volume between right and left paw)” value in data set [1] (3 h after carrageenan) worked out at 0.24. Besides, the “Inhibition of acute inflammation % inh” value in data set [1] (4 h) worked out at 78.23%. Besides, in data set [1] (4 h after carrageenan), the “Swel (mean difference in rat paw volume between right and left paw)” value is 0.14. Moreover, in data set [1], the “inflammation reduction % (4h)” value is 78.2% and 78.23%. On COX-1 (human), the IC50 turned out to be 19.9 µM and the “affinity towards COX-1 over COX-2” value is given as “approximately 2 fold”. For the same compound, the “5-LOX inhibition, times less potent than 7a” value on 5-LOX (compared with 7a) is “approximately 90 times”. Moreover, on 5-LOX, the “5-LOX IC50 level” value is “micromolar level”.
Turning to `COc1ccc(/C=N/n2nnc3c(sc4nc(C)cc(C)c43)c2=O)cc1` [Compound 8c, 7,9-Dimethyl-3-[(4-methoxy-phenyl-methylene)amino]pyrido[3ˈ,2ˈ:4,5]thieno [3,2-d][1,2,3]triazin-4(3H)-one], the melting point was in the range of 240 to 242 °C. On COX-2 (human), this compound had an IC50 of 19 µM. Also, in data set [1] (1 h), the “Inhibition of acute inflammation % inh” value stood at 0%. Also, the “Swel (mean difference in rat paw volume between right and left paw)” value in data set [1] (1 h after carrageenan) was 0.246. The “Inhibition of acute inflammation % inh” value in data set [1] (2 h) worked out at 34.61%. The “Swel (mean difference in rat paw volume between right and left paw)” value in data set [1] (2 h after carrageenan) is 0.17. The “Inhibition of acute inflammation % inh” value in data set [1] (3 h) was found to be 41.78%. Also, the “Swel (mean difference in rat paw volume between right and left paw)” value in data set [1] (3 h after carrageenan) was found to be 0.316. For the same compound, the “Inhibition of acute inflammation % inh” value in data set [1] (4 h) worked out at 79.36%. In addition, in data set [1] (4 h after carrageenan), the “Swel (mean difference in rat paw volume between right and left paw)” value is reported as 0.13. Moreover, the “inflammation reduction % (4h)” value in data set [1] is 79.4% and 79.36%. Also, on COX-1 (human), the IC50 is 7.7 µM and 7.66 µM; the “affinity towards COX-1 over COX-2” value is on record as “approximately 2 fold”. For the same compound, the “5-LOX IC50 level” value on 5-LOX is recorded as “micromolar level”.
